Data taken from publication PMC5238498, “Bivalent IAP antagonists, but not monovalent IAP antagonists, inhibit TNF-mediated NF-κB signaling by degrading TRAF2-associated cIAP1 in cancer cells” (Cell Death Discovery, 2017).

Biological target: T1, cIAP1 BIR3 domain (Homo sapiens, UniProt Q13490)
T1 construct: gene BIRC2; isolated purified BIR3 domain
Assay: fluorescence polarization assay
Settings: read-out: cIAP1 BIR3 binding (Ki, nmol/l)
Excerpt: fluorescence polarization assay on cIAP1 BIR3 domain

T1 sequence (Q13490 260-352 limits assumed): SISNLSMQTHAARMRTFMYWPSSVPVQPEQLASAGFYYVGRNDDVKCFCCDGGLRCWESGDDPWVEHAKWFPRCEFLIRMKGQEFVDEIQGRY

Ki, ~1 nmol/L:
CN[C@@H](C)C(=O)N[C@H](C(=O)N1C[C@@H](O)C[C@H]1Cc1c(-c2[nH]c3cc(F)ccc3c2C[C@@H]2C[C@H](O)CN2C(=O)[C@@H](NC(=O)[C@H](C)NC)[C@@H](C)OC)[nH]c2cc(F)ccc12)[C@@H](C)OC [B2], CN[C@@H](C)C(=O)N[C@H](C(=O)N1C[C@@H](O)C[C@H]1Cc1c[nH]c2cc(F)ccc12)C(C)(C)C [M3], CC[C@H](NC(=O)[C@H](C)NC)C(=O)N1C[C@@H](O)C[C@H]1Cc1c[nH]c2cc(F)ccc12 [M1], CN[C@@H](C)C(=O)N[C@H](C(=O)N1C[C@@H](O)C[C@H]1Cc1c[nH]c2cc(F)ccc12)[C@@H](C)OC [M2], CN[C@@H](C)C(=O)N[C@H](C(=O)N1C[C@@H](O)C[C@H]1Cc1c(-c2[nH]c3cc(F)ccc3c2C[C@@H]2C[C@H](O)CN2C(=O)[C@@H](NC(=O)[C@H](C)NC)C(C)(C)C)[nH]c2cc(F)ccc12)C(C)(C)C [B3]
